{
  "source": "patent US6063587A",
  "about": "“Water-soluble tetrazolium salt compounds” (Dojindo Laboratories Co., Ltd., priority 1996, dated 2000)",
  "key": {"[1]": {"test": "Storage stability test (absorbance of aqueous buffer solution at 460 nm)", "format": "physicochemical", "details": "1 mM in 50 mM Tris buffer (pH 8.0), stored at 4° C. for 0, 1, 7, 14, 31 and 90 days", "experimental": "50 mM Tris buffer (pH 8.0) containing 1 mM of Compound a was stored at 4° C. for 0, 1, 7, 14, 31 and 90 days, and absorbances at 460 nm were measured. At the same time, the compound of the above general formula (2) described in Japanese Patent Unexamined Publication No.(Hei) 7-70092/1995 wherein both R^1 and R^2 are nitro groups (Compound b: see, the section of \"Background Art\") was stored in the same manner, and changes of absorbance were measured."}, "[2]": {"details": "background statement; cited from earlier work"}},
  "data": [
    {"molecule": "O=[N+]([O-])c1ccc(-n2nc(-c3ccc(S(=O)(=O)O)cc3S(=O)(=O)[O-])n[n+]2-c2ccc(I)cc2)c([N+](=O)[O-])c1", "note": "[Compound b]", "values": [
      {"measurement": "changes of absorbance at 460 nm on storage", "setting": "[1]", "result": "remarkable increases of absorbance"}
    ]},
    {"molecule": "COc1cc(-c2ccc(-n3nc(-c4ccccc4)n[n+]3-c3ccc([N+](=O)[O-])cc3)c(OC)c2)ccc1-n1nc(-c2ccccc2)n[n+]1-c1ccc([N+](=O)[O-])cc1", "note": "[nitro-TB, 3,3'-[3,3'-dimethoxy-(1,1'-biphenyl)-4,4'-diyl]-bis[2-(4-nitrophenyl)-5-phenyl]-2H-tetrazolium chloride]", "values": [
      {"measurement": "water solubility of formazan compound", "setting": "[2]", "result": "low water solubility"}
    ]}
  ]
}
